{
  "source": "patent US20230293530A1",
  "about": "“AGENTS FOR SENSITIZING SOLID TUMORS TO TREATMENT” (Yeda Research and Development Co. Ltd., priority 2020, published 2023)",
  "key": {"MC38 cells": {"system": "MC38 cells", "experiment": "Nucleotide levels by LC-MS in MC38 cells with or without mizoribine", "assay_type": "cell-based, mouse", "conditions": "300 µM mizoribine, 24 h", "experimental": "A) Purine/pyrimidine ratio is increased upon nutrient deprivation in […] colon cancer cells. MC38 cells were grown in either regular medium or in medium without glucose for 24 h. Nucleotide levels were measured by LC-MS. Purine/pyrimidine ratio was calculated by dividing (AMP+GMP) AUC by (UMP+CMP) AUC. B) 4T1 cells with and without shASS1 were grown in glucose free medium either supplemented or not with 10 mM L-Name for 48 hrs. Nucleotide levels were measured by LC-MS. Purine/pyrimidine ratio was calculated by dividing the sum levels of (AMP+GMP) by the sum levels of (UMP+CMP+TMP). […] MC38 cells were grown either with or without 300 µM mizoribine for 24 h. Nucleotide levels were measured by LC-MS. […] Cell viability was measured by crystal violet staining. […]\nLC-MS analysis: The LC-MS/MS instrument consisting of an Acquity I-class UPLC system (Waters) and Xevo TQ-S triple quadrupole mass spectrometer (Waters), equipped with an electrospray ion source, and operated in positive ion mode was used for analysis of nucleoside monophosphates. […] Nucleotide concentration was calculated using a standard curve of the relevant nucleotide concentration in each sample. Standard curves included increasing concentration of all measured nucleotides ranging from 0-10 ug/ml that were positioned at the beginning and at the end of each run. […]"}, "4T1 breast cancer cells": {"system": "4T1 breast cancer cells", "experiment": "Syngeneic mouse breast cancer model, 4T1 cells pre-treated in vitro with mizoribine", "assay_type": "in vivo, BALB/c female mice", "text": "C) ASS1 mRNA expression levels and NDNO scores are associated with non-response to anti-PD1 therapy in non-small cell lung cancer (NSCLC) (7 responders and 14 nonresponders). D) Proteomic-based NDNO scores associate with lower hydrophobicity of peptide repertoire (Wilcoxon ranksum P<0.05) in a (CPTAC3) lung adenocarcinoma cohort. NDNO scores were used to determine the top tertile (red; n=36) and bottom tertile (blue; n=36); Proteomic NDNO scores denote the ratio of NNDO scores of the tumor vs the matched normal sample (Methods). Hydrophobicity scores were determined by R library Peptides using the metric from Janin et al^2, where the hydrophobicity of each sample’s peptide repertoire denotes the mean hydrophobicity of all its peptides (Methods). E) 4T1 breast cancer cells were treated with 300 µM mizoribine for 24 hours and analysed by western for LMP-7 immunoproteasome (Left panel). Quantification of the western is shown on the right panel. […] Tumor size was calliper-measured on the designated days (upper panel) and at sacrifice on day 14 (lower panel, p = 0.0476 using student’s t-test). […] Human IFNγ was measured using ELISA in wells containing cultured CD8+T-cells and PDX explants from two patients (Pat#1, LEP 19 and Pat#2, LEP 20) with metastatic NSCLC on responsive to anti-PD1. […]"}, "4T1 cells": {"system": "4T1 cells", "experiment": "Cell viability by crystal violet staining, 4T1", "assay_type": "cell-based, murine", "conditions": "300 µM mizoribine, 24 h", "experimental": "A) Purine/pyrimidine ratio is increased upon nutrient deprivation in […] colon cancer cells. MC38 cells were grown in either regular medium or in medium without glucose for 24 h. Nucleotide levels were measured by LC-MS. Purine/pyrimidine ratio was calculated by dividing (AMP+GMP) AUC by (UMP+CMP) AUC. B) 4T1 cells with and without shASS1 were grown in glucose free medium either supplemented or not with 10 mM L-Name for 48 hrs. Nucleotide levels were measured by LC-MS. Purine/pyrimidine ratio was calculated by dividing the sum levels of (AMP+GMP) by the sum levels of (UMP+CMP+TMP). […] MC38 cells were grown either with or without 300 µM mizoribine for 24 h. Nucleotide levels were measured by LC-MS. […] 4T1 (left panel) and MC38 cells (right panel) were grown for 24 h with or without 300 µM mizoribine. Cell viability was measured by crystal violet staining. Each experiment was conducted with biological and technical replicates and repeated at least three times. All error bars represent SER. * P<0.05, ** denotes P<0.01, ***P<0.001."}},
  "data": [
    {"smiles": "NC(=O)c1ncn([C@@H]2O[C@H](CO)[C@@H](O)[C@H]2O)c1O", "note": "[Mizoribine, mizoribine]", "values": [
      {"measurement": "purine/pyrimidine ratio (AMP+GMP) AUC/(UMP+CMP) AUC", "setting": "MC38 cells", "result": "decreased purine/pyrimidine ratio"},
      {"measurement": "tumor growth", "setting": "4T1 breast cancer cells; 4T1 cells treated with mizoribine in vitro before injection into mammary pads, mizoribine alone", "result": "restricted tumor growth"},
      {"measurement": "tumor growth response in combination with anti-PD1", "setting": "4T1 breast cancer cells; 4T1 cells treated with mizoribine in vitro before injection, anti-PD1 intraperitoneal, mice unresponsive to anti-PD1", "result": "more significant response"},
      {"measurement": "cancer cell proliferation (cell viability, crystal violet)", "setting": "4T1 cells", "result": "restricts ASS1-overexpressing cancer cell proliferation"}
    ]}
  ]
}
